Reference: the NIST ThermoML archive (doi:10.1016/j.fluid.2008.07.018)
± gives the expanded uncertainty stated by the source.

Legend:
[1] = refractive index (Na D-line) (dimensionless); settings: 298.15 K; 101.33 kPa; Liquid; Standard Abbe refractometry
[2] = Liquid; for mass density: 298.15 K, 101.33 kPa

| Compound | vapor or sublimation pressure ([2]; 472.55 K) | vapor or sublimation pressure ([2]; 424.35 K) | refractive index [1] | mass density [2] | vapor or sublimation pressure ([2]; 455.25 K) | vapor or sublimation pressure ([2]; 427.05 K) | vapor or sublimation pressure ([2]; 402.85 K) |
| --- | --- | --- | --- | --- | --- | --- | --- |
| CC(=O)N(C)C [N,N-dimethylethanamide] | – | – | 1.4357 ± 0.0007 | 936.3 ± 2.7 kg/m3 | – | – | – |
| Nc1ccccc1 [aniline] | – | – | 1.5836 ± 0.0007 | 1017.6 ± 3 kg/m3 | 95.5 ± 4 kPa | – | – |
| Brc1ccccc1 [bromobenzene] | – | – | 1.5571 ± 0.0007 | 1488.1 ± 4.8 kg/m3 | – | 95.5 ± 4 kPa | – |
| Clc1ccccc1 [chlorobenzene] | – | – | 1.5218 ± 0.0007 | 1106.3 ± 3.3 kg/m3 | – | – | 95.5 ± 4 kPa |

More lines, main results first:

| vapor or sublimation pressure ([2]; 472.55 K) | vapor or sublimation pressure ([2]; 424.35 K) | Compound | refractive index [1] | mass density [2] | vapor or sublimation pressure ([2]; 455.25 K) | vapor or sublimation pressure ([2]; 427.05 K) | vapor or sublimation pressure ([2]; 402.85 K) |
| --- | --- | --- | --- | --- | --- | --- | --- |
| 95.5 ± 4 kPa | – | CC(=O)c1ccccc1 [acetophenone] | 1.5342 ± 0.0007 | 1023.8 ± 3 kg/m3 | – | – | – |
| – | 95.5 ± 3.3 kPa | CN(C)C=O [dimethylformamide] | 1.4219 ± 0.0007 | 943.9 ± 1.6 kg/m3 | – | – | – |
